According to ChEMBL document CHEMBL1800032, “Allosteric and ATP-competitive kinase inhibitors of mTOR for cancer treatment” (Bioorg Med Chem Lett, 2010):

Biological target: Serine/threonine-protein kinase mTOR (Homo sapiens, UniProt P42345)
Experiment: Inhibition of recombinant mTOR assessed as inhibition of S6K T389 phosphorylation by DELFIA assay

IC50: 5 nM
SMILES: COC(=O)Nc1ccc(-c2nc(N3CCOCC3)c3cnn(C4CCN(C(=O)OC)CC4)c3n2)cc1
